Measurements as given in US8669232B2, “Flavonol compounds, a bioactive extract/fraction from Ulmus wallichiana and its compounds for prevention for treatment of osteo-health related disorders” (Council of Scientific & Industrial Research, priority 2008, dated 2014).

Test system: growing female Sprague Dawley rats
Experiment: Attainment of peak bone mass: BMD by DEXA in growing rats
Format: in vivo
Settings: 21 days old female rats, 5 mg/kg body weight oral daily, 30 days; vs vehicle
Protocol: 21 days old female Sprague Dawley rats were divided into three groups, each group consisted of 10 rats; control (vehicle treated), 750 mg/kg C002 crude extract, and 50 mg/kg 914/F004. Vehicle or treatments were given daily by oral route in gum acacia for 30 days. After completion of 30 days the rats were euthanized and there bones (femur, tibia, L1-L4 vertebra) were collected.
Bone Mineral Density of Femur (Global, head, neck), tibia (global, head, tibio-fibular separation point) and lumber vertebra (LV1, LV2, LV3, LV4) was determined by DEXA.
Female Sprague Dawley rats at weaning (˜21 d old) were divided into two groups consisting of 10 rats per group. Control rats were treated with gum acacia (vehicle) and the other group was treated with K058 at 5 mg/kg body weight. All the control and treated rats were given K058 or vehicle daily by oral route in gum acacia for 30 days. After completion of 30 days the rats were euthanized and their bones (femur, tibia, L1-L4 vertebra) were collected.
Bone mineral density of femur (global, head, neck), tibia (global, head, tibio-fibular separation point) and lumber vertebra (LV1, LV2, LV3, LV4) was determined by DEXA.

O=C1c2c(cc(O)c([C@@H]3OC(CO)[C@@H](O)[C@H](O)C3O)c2O)O[C@@H](c2ccc(O)c(O)c2)[C@@H]1O (stereo partly drawn) [K058, (2S,3S)-(+)-3′,4′,5,7-tetrahydroxydihydroflavonol-6-C-β-D-glucopyranoside]
BMD shaft region of femur: significantly more
